Measurements: US20150322049A1, “LEUKOTRIENE PATHWAY ANTAGONISTS FOR THE TREATMENT OF DEMENTIA, COGNITIVE DEFICITS IN PARKINSON'S DISEASE AND/OR LEARNING AND MEMORY DEFICIENCIES IN PARKINSON'S DISEASE” (priority 2012, published 2015)
Read-outs that look alike come from different tables or passages of the source.

What was measured:
[1] = Body weight on day 1 and day 42 of treatment; type: in vivo, rat; conditions: young and old rats, 10 mg kg^-1 p.o. daily
Experimental: For the analysis of cell survival and cell differentiation, all rats received intraperitoneal injections of BrdU (Sigma, Germany) at 50 mg kg^−1 of body weight dissolved in 0.9% saline solution on day 12, 13, 14 and 15.
GPR17 is highly expressed in food-intake-regulating Agrp Neurons, and intraventricular infusion of GPR17 agonists elevates food intake (Ren, 2012, Cell, 8; 149(6):1314-26). […] Therefore, each rat was weighed at the beginning of the experiment (day 1) and directly before the perfusion (day 42).

[2] = system: neural progenitor cells (NPC); conditions: cited from earlier work; for influence on the proliferation of NPCs: treatment of NPCs with leukotriene
neural stem cell (NSC) = conditions: cited from earlier work
young rats = conditions: intraperitoneal, combination treatment with rofecoxib; cited from earlier work
[3] = system: CysLT1R-mediated amyloid-beta generation; conditions: cited from earlier work
[4] = system: Alzheimer's disease patients; conditions: cited from earlier work

Compound: CC(C)(O)c1ccccc1CC[C@@H](SCC1(CC(=O)O)CC1)c1cccc(/C=C/c2ccc3ccc(Cl)cc3n2)c1 [Montelukast, montelukast]
- body weight vs vehicle treated counterparts [1]: did not differ
- body weight vs vehicle treated counterparts ([1]; listed as montelukast): remained stable
- NPC proliferation rate ([2]; 1 μM): did not alter
- NPC proliferation ([2]; 10 μM): increased proliferation
- NPC proliferation ([2]; 15 μM): increased proliferation
- NPC proliferation rate ([2]; 30 μM): did not alter
- NPC proliferation ([2]; 50 μM): significant reduction
- NPC proliferation ([2]; 100 μM): significant reduction
- NSC proliferation (neural stem cell (NSC); 15 μM): significantly increase
- proliferative potential of the NSCs (neural stem cell (NSC); 30 μM): significantly reduced
- proliferative potential of the NSCs (neural stem cell (NSC); 100 μM): significantly reduced
- effect against kainic acid-induced cognitive dysfunction in combination with rofecoxib (young rats): potentiates the protective effect of rofecoxib

Compound: CCCCC/C=C\C\C=C/C=C/C=C/[C@@H](SC[C@H](NC(=O)CC[C@H](N)C(=O)O)C(=O)NCC(=O)O)[C@@H](O)CCCC(=O)O [Leukotriene C4]
- influence on the proliferation of NPCs [2]: no influence

Compound: pranlukast
- leukotriene D4-induced increase in amyloid-beta generation ([3]; 3 month old mice, injected bilaterally 2.5 mm below the dura): inhibited
- learning impairment and memory loss caused by leukotriene D4 treatment ([3]; mice, sub-dura injection): improves

Compound: CCCCC/C=C\C\C=C/C=C/C=C/[C@@H](SC[C@H](N)C(=O)NCC(=O)O)[C@@H](O)CCCC(=O)O [Leukotriene D4]
- influence on the proliferation of NPCs [2]: no influence
- effect on cognition ([3]; 3 month old mice): induce cognitive impairment

Compound: COc1ccc2c(c1)c(CC(=O)O)c(C)n2C(=O)c1ccc(Cl)cc1 [indomethacin]
- mental functions [4]: stabilize mental functions
